The source of these data is patent US7084166B2, “Bis-heterocyclic compounds with antitumour and chemosensitising activity” (Sigma-Tau Industrie Farmaceutichee Riunite S.p.A., priority 2000, dated 2006).

Like-named read-outs stand apart in the source and are kept apart here.

What all share (format): cell-based
Data set [1] relates to MCF-7 (human mammary carcinoma). The data set can be described thus: Cytotoxicity test on sensitive tumour cell lines (sulforodamine B test). The settings on record: 24 h incubation, survival after 48 h, ± S.D., read-out: antiproliferative activity IC50, MCF-7. The method, then: (§1) This test was used to evaluate the survival of the human cell lines MCF-7 (human mammary carcinoma), LoVo (human colon adenocarcinoma), and MES-SA (human uterine sarcoma). The tumour cells were incubated with the compound, at scalar concentrations, (500 μM÷0.97 μM) for 24 hours; the compound was then removed and cell survival was evaluated after 48 hours using the sulforodamine B test (J. Natl. Cancer Inst. 82, 1107–1112). The antiproliferative activity of the compounds was evaluated in terms of the IC50 (concentration of the molecule that inhibits 50% of cell survival) processed with a curve-fitting program (Am. J. Physiol. 1978., 235, E97–E102) and expressed as μM±S.D.

Data set [2] deals with LoVo (human colon adenocarcinoma). Described as above. Conditions: 24 h incubation, survival after 48 h, ± S.D., read-out: antiproliferative activity IC50, Lovo. As to the method: as §1
Data set [3] concerns MES-SA (human uterine sarcoma). The description is as above. Conditions: 24 h incubation, survival after 48 h, ± S.D., read-out: antiproliferative activity IC50, Mes-Sa. The method, then: as §1
Data set [4] has as its system LoVo-Dx (human colon adenocarcinoma). The data set can be described thus: Cytotoxicity test on resistant tumour cell lines, tested compound alone. Conditions: 24 h incubation, survival after 48 h, ± SD. The method, then: (§2) This test was used to evaluate the survival of human cell lines resistant to doxorubicin (about 100 times) and cross-resistant to daunorubicin, actinomycin D, mitoxantrone, vincristine, vinblastin, taxol, colchicine, and etoposide.
(§3) The following cell lines were used: MCF-7-Dx (human mammary carcinoma), LoVo-Dx (human colon adenocarcinoma), MES-SA Dx (human uterine sarcoma).
(§4) Before using the association doxorubicin-tested compound, the cytotoxicity of the cells was evaluated with the tested compound (alone) as follows: the cells were incubated with the compound, at scalar concentrations (500 μM÷0.97 μM), for 24 hours; the compound was then removed and cell survival was evaluated after 48 hours with the above-mentioned sulforodamine B test. The antiproliferative activity of the compounds was evaluated in terms of IC50 (concentration of the compound that inhibits 50% of cell survival) processed with the above-mentioned curve-fitting program.

In data set [5] the test system is MCF-7-Dx (human mammary carcinoma). The description is as above. The settings on record: 24 h incubation, survival after 48 h, ± SD. As to the method: as §2, §3, §4
In data set [6] the test system is MES-SA Dx (human uterine sarcoma). The description is as above. The settings on record: 24 h incubation, survival after 48 h, ± SD. As to the method: as §2, §3, §4
For data set [7], the system named is NB4 cells (acute promyelocytic leukaemia). Briefly: Flow cytofluorimetric analysis of cell cycle. Further details: APOPTOSIS: unit not given here. Conditions: for APOPTOSIS / G0/G1 / G2/M / S: day 3. As to the method: The first line used was the NB4 cell line, bearing the t(15;17) chromosomal translocation which generates the fusion protein PML/RARα.
To assess the effect of the tested compounds on the various phases of the cell cycle, on the third day of treatment 500,000 cells were harvested, centrifuged at 1,000 rpm for 10 minutes, washed twice in PBS w/o (PBS without calcium and magnesium) and fixed in a solution of 50% PBS w/o+50% methanol/acetone (1:4 v/v) for at least 1 hour; the cells were then centrifuged as described, washed in PBS w/o and centrifuged again.
200 μl of propidium iodide 100 μg/ml and 200 μl of RNase 150 kU/mg were then added to the cell pellet.
After a 30-min incubation in the dark at room temperature, the samples were analysed by flow cytofluirometry.

For data set [8] the test system is unchanged. The data set can be described thus: Cell differentiation by reduction of nitroblue tetrazolium (NBT), with suboptimal ATRA. Conditions: combined with suboptimal doses of ATRA, NBT; for AC50: 3 days, read-out: AC50 (concentration at which the tested compound induces 50% of cell differentiation). As to the method: The first line used was the NB4 cell line, bearing the t(15;17) chromosomal translocation which generates the fusion protein PML/RARα. This line is very sensitive to the differentiative action of pharmacological doses of ATRA (10^−7–10^−6 M).
The HL60 and NB4 cells were seeded at a density of 150,000 cells/ml in RPMI 1640 medium containing 10% foetal calf serum, and were treated with the tested compounds in the presence and absence of suboptimal doses of ATRA (5–10 nM for NB4 and 0.5 μM for HL60, respectively) in the dark, and returned to the incubator for 3 days without ever replacing the culture medium.
To analyse the differentiative effect of the tested compounds vs ATRA, on the third day of treatment 500,000 viable cells were harvested from each sample, centrifuged for 10 minutes at 1.000 rpm and resuspended in 1 ml of RPMI 1640 medium containing 10% foetal calf serum, 1 mg/ml of nitroblue tetrazolium (NBT) and 100 ng of PMA (phorbol 12-myristate 13-acetate).
The cells thus resuspended were incubated in the dark at 37° C. for 60 minutes.
At the end of the incubation, the cell suspension was centrifuged for 10 minutes at 10,000 rpm; the pellet obtained was then resuspended in 1 ml of PBS containing 10% Triton X-100 and sonicated to lysis.
Spectrophotometric readings of the samples were then taken at a wavelength of 540 nm: samples containing differentiated cells shifted towards a violet colour, whereas control samples and/or samples with non-differentiated cells were colourless or, at any rate, much less intensely coloured.
The AC50 (Activating Concentration) is the concentration at which the tested compound induces 50% of cell differentiation.
Fold Induction is the increase in the differentiation value of the cell sample treated with the tested compound +ATRA vs the value of the cell sample treated with ATRA alone. This value provides an indication of the ability (potency) of the tested compound to enhance ATRA induced cell differentiation.

In general, IC50 refers to the concentration at which inhibition is half-maximal. As to `CCCC(c1c[nH]c2cc3c(cc12)OCO3)c1c[nH]c2cc3c(cc12)OCO3` [ST 1478, 1,1-di-(5,6-methylenedioxy-indol-3-yl)-butane], the IC50 in data set [1] (Homo sapiens, MCF7) was 11.8 ± 0.4 µM; in data set [2] (Homo sapiens, LoVo), 15.4 ± 1.8 µM; in data set [3] (Homo sapiens, MES-SA) it was 17 ± 2 µM; in data set [4] (Homo sapiens, LoVo/DX), 10.7 ± 0.6 µM; in data set [5] (Homo sapiens, MCF7/DX), 15.2 ± 1.9 µM; in data set [6] (Homo sapiens, MES-SA Dx), 7.8 ± 1.5 µM.
Consider `c1ccc2c(C(c3c[nH]c4ccccc34)C3CCCCC3)c[nH]c2c1` [ST 1487, 1,1-di-(indol-3-yl)-cyclohexylmethane], for which the 50% inhibitory concentration (IC50) in data set [1] stood at 29.9 ± 0.006 µM; in data set [2] it was 24.9 ± 0.1 µM; in data set [3], 38.7 ± 0.03 µM; in data set [4], 27.8 ± 2.1 µM; in data set [5], 15.3 ± 1 µM; in data set [6], 16 ± 3.5 µM.
In the case of `CS(=O)(=O)OCCCCC(c1c[nH]c2ccccc12)c1c[nH]c2ccccc12` [ST 1488, 1,1-di-(indol-3-yl)-5-mesyloxy-pentane], the half-maximal inhibitory concentration (IC50) was determined as 13.4 ± 2.2 µM in data set [1] (Homo sapiens, MCF7); 11 ± 1.6 µM in data set [2] (Homo sapiens, LoVo); 15.8 ± 1.8 µM in data set [3] (Homo sapiens, MES-SA); 18.1 ± 0.6 µM in data set [4] (Homo sapiens, LoVo/DX); 9.7 ± 1.3 µM in data set [5] (Homo sapiens, MCF7/DX); 10.3 ± 1.9 µM in data set [6] (Homo sapiens, MES-SA Dx).
For the compound `OCCCC(c1c[nH]c2ccccc12)c1c[nH]c2ccccc12` [ST 1707, 1,1-di(indol-3-yl)-4-hydroxy-butane], the APOPTOSIS is reported as 17.0 in data set [7] (compound 1 μM + ATRA 0.01 μM); 14.0 in data set [7] (compound 5 μM + ATRA 0.01 μM); 13.0 in data set [7] (compound 10 μM + ATRA 0.01 μM); 11.5 in data set [7] (compound 50 μM + ATRA 0.01 μM); 17.0 in data set [7] (compound alone 1 μM); 19.5 in data set [7] (compound alone 5 μM). Further, the figures for the APOPTOSIS in data set [7] (compound alone 10 μM) and in data set [7] (compound alone 50 μM) were 17.5 and 17.0, respectively. Further, the G0/G1 in data set [7] (compound 1 μM + ATRA 0.01 μM) came to 65.4; in data set [7] (compound 5 μM + ATRA 0.01 μM), 69.8; in data set [7] (compound 10 μM + ATRA 0.01 μM), 70.4; in data set [7] (compound 50 μM + ATRA 0.01 μM), 80.6; in data set [7] (compound alone 1 μM), 51.7; in data set [7] (compound alone 5 μM) it was 52.5. For the same compound, the G0/G1 in data set [7] (compound alone 10 μM) is 52.2; in data set [7] (compound alone 50 μM), 52.0. Moreover, the G2/M in data set [7] (compound 1 μM + ATRA 0.01 μM) came to 11.8; in data set [7] (compound 5 μM + ATRA 0.01 μM) it was 11.3; in data set [7] (compound 10 μM + ATRA 0.01 μM) it was 11.5; in data set [7] (compound 50 μM + ATRA 0.01 μM), 9.0; in data set [7] (compound alone 1 μM) it was 10.1; in data set [7] (compound alone 5 μM), 11.1. For the same compound, the figures for the G2/M in data set [7] (compound alone 10 μM) and in data set [7] (compound alone 50 μM) were 10.8 and 12.0, respectively. Besides, the S in data set [7] (compound 1 μM + ATRA 0.01 μM) worked out at 22.8; in data set [7] (compound 5 μM + ATRA 0.01 μM), 18.9; in data set [7] (compound 10 μM + ATRA 0.01 μM), 18.1; in data set [7] (compound 50 μM + ATRA 0.01 μM) it was 10.4; in data set [7] (compound alone 1 μM), 38.2; in data set [7] (compound alone 5 μM) it was 36.4. Moreover, the S in data set [7] (compound alone 10 μM) was 37.0; in data set [7] (compound alone 50 μM), 36.0. For the same compound, in data set [7] (compound alone (ST 1346: high doses)), the “effect of the compound alone on cell cycle and apoptosis (in words)” value is “does not induce apoptosis”. In addition, the AC50 in data set [8] (Homo sapiens, NB-4, 72 h) worked out at 8.3 ± 0.05 µM. For the same compound, the “fold induction (differentiation, compound + ATRA vs ATRA alone)” value in data set [8] was found to be 2.5.
In data set [7] (compound alone 1 μM), `O=C(O)CCC(c1c[nH]c2ccccc12)c1c[nH]c2ccccc12` [ST 1961, 4,4-di-(1H-indolyl-)butanoic acid] yielded an APOPTOSIS of 18.5, a G0/G1 of 47.5, a G2/M of 15.6 and an S of 36.9. Also, in data set [7] (compound alone 5 μM), the APOPTOSIS worked out at 24.0, the G0/G1 is recorded as 49.7, the G2/M is listed as 13.0 and the S was 37.3. In data set [7] (compound alone 10 μM), this compound came in with an APOPTOSIS of 24.0, a G0/G1 of 48.4, a G2/M of 14.1 and an S of 37.5. Besides, in data set [7] (compound alone 50 μM), the APOPTOSIS is 24.0, the G0/G1 is on record as 56.3, the G2/M is reported as 14.0 and the S is listed as 29.7. In data set [8], the AC50 turned out to be 6.6 ± 2 µM and the “fold induction (differentiation, compound + ATRA vs ATRA alone)” value came to 1.4.
